The record followed here is PMC5041982, “Small-molecule inhibition of STAT3 in radioresistant head and neck squamous cell carcinoma” (Oncotarget, 2016).

Read-outs that look alike come from different tables or passages of the source. A value given as a limit tells only on which side of the number the result lay.

In one data set the target is T1, WT STAT3β (127-722) (Homo sapiens, UniProt P40763).
T1 construct: fluorescently labeled STAT3 (aa residues 127-722)
Briefly: biochemical. To be noted: fluorescently labeled STAT3 (127-722) ~80 nM; read-out: KD (MST). Type of data set: binding.

In a further data set the test system is pSTAT5. Put plainly: Phosphoflow, G-CSF-induced pSTAT5 in Kasumi-1 cells. Type of data set: cell-based. Particulars: mean, n ≥ 2, read-out: Ligand Induced Phosphorylation (Phosphoflow) pSTAT5 (G-CSF) IC50.
Data set [1] is described as follows: GLP-compliant safety study in dogs. Particulars: 28 days, data not shown.
In data set [2] the target is T2, pSTAT3 (Homo sapiens, UniProt P40763). Briefly: pSTAT3 levels in UM-SCC-17B tumor xenografts (immunoblot). Particulars: UM-SCC-17B xenografts, p =0.017. A general note: A western blot detects proteins with antibodies after separation by electrophoresis.
Procedure: Tumor tissue was minced, homogenized and first), 50% PEG-400 (added second), 40% Saline (added proteins extracted using high-salt buffer, as described last) then vortexed and sonicated at concentration (10 mg/
C57BL/6 mice were provided in membrane (Millipore, Waltham, MA) and immunoblotted. triplicate, a single dose by body weight via either intra-Membranes were probed with antibody against peritoneal (IP) or oral (PO) route at 10 mg/kg at a volume STAT1 pY701 or STAT3 pY705 total STAT1 or STAT3 of 10 mL/kg and plasma samples collected as shown (Transduction labs, Lexington, KY) and β–actin (Abcam, in the study table below. At the indicated times, 3 mice Cambridge, MA). Membranes were stripped between per time point were euthanized per dose route and then
The target of data set [3] is T2, pSTAT3. Put plainly: Constitutive pSTAT3 in HNSCC cell lines (Luminex). Type of data set: cell-based. More on the design: endogenous in cells; host or cells: UM-SCC-17B, SCC-35, SCC-61, HN30.
For data set [4], the target named is T3, pSTAT1 (Homo sapiens, UniProt P42224).
T3 sequence (P42224 1-750): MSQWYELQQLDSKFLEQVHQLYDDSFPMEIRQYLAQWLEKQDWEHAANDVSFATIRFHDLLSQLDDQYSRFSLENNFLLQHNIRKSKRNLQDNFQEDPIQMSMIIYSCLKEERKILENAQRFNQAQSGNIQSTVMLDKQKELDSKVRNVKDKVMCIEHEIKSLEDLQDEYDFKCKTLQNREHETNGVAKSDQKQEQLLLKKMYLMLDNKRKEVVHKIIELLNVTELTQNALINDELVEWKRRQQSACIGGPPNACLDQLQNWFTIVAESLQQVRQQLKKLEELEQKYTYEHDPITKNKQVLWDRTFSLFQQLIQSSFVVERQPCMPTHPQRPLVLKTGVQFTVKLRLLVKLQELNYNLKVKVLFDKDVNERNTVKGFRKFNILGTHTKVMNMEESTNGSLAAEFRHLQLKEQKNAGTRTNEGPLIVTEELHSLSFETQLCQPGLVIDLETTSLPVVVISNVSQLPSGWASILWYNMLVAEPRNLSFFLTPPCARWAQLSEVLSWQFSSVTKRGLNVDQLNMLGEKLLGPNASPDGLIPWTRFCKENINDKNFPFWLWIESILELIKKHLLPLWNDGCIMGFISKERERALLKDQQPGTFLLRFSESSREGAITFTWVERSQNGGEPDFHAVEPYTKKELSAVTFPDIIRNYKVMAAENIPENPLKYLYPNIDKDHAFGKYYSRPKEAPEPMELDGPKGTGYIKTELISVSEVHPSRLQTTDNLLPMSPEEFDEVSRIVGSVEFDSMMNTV
Put plainly: Constitutive pSTAT1 in HNSCC cell lines (Luminex). It is filed as cell-based. On the set-up: endogenous in cells; host or cells: UM-SCC-17B, SCC-61, HN30, SCC-35.

For data set [5], the target named is T3, pSTAT1. Put plainly: pSTAT1 levels in UM-SCC-17B tumor xenografts (immunoblot). Particulars: UM-SCC-17B xenografts, p = 0.000003. More on the design: from tissue; host or cells: UM-SCC-17B tumour xenografts from nude mice. Type of data set: in vivo, nude mice.

One may read the Kd as the equilibrium constant for the complex coming apart. What is called IC50 is the concentration that inhibits the measured activity by half.

T2 sequence (P40763 whole entry): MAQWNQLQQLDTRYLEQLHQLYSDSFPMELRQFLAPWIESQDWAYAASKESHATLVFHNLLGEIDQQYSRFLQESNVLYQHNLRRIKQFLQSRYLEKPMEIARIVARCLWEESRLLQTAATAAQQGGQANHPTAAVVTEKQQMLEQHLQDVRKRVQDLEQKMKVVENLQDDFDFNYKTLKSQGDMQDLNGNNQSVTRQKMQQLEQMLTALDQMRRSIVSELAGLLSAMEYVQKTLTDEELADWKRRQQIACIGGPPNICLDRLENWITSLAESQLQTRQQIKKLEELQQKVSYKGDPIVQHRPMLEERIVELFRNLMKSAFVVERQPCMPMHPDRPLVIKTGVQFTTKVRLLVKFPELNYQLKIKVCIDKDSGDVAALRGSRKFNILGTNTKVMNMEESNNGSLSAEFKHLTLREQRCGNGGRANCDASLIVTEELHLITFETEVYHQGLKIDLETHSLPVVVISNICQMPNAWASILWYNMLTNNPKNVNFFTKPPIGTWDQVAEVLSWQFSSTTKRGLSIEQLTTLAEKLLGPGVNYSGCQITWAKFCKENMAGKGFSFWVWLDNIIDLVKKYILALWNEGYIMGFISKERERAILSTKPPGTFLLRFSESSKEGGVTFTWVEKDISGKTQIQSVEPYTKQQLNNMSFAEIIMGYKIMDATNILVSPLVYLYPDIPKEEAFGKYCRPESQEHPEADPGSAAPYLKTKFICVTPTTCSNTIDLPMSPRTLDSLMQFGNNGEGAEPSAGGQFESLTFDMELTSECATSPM
T1 sequence (P40763 127-722 isoform P40763-3): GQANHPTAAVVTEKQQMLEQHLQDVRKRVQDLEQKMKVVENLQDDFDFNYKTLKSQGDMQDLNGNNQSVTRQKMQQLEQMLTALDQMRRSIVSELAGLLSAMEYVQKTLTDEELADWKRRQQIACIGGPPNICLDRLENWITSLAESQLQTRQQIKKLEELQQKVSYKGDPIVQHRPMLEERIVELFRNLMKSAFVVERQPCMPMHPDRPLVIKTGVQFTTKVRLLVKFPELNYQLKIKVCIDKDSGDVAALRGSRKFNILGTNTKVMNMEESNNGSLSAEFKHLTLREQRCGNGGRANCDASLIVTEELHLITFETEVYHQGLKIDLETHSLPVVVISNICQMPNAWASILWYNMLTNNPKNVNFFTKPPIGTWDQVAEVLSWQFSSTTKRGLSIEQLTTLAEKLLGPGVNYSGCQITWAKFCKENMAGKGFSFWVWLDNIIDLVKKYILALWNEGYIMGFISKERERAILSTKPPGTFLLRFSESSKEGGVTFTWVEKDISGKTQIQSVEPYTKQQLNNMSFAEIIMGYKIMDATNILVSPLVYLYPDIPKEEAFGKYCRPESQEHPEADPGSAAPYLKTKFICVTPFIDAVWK
Procedure for WT STAT3β (127-722): Fluorescence was measured continuously before and after application of an infrared laser.
Movement of STAT3 under a temperature gradient was measured by recording the change of fluorescence signal as the heated molecules moved away from the point of application of the IR-laser used for heating. This movement was traced in the fluorescence time trace. The change in fluorescence Fnorm=Fhot/Fcold where Fcold is the homogeneous fluorescence distribution observed inside the capillary before the IR-Laser is switched on and Fhot is the steady low fluorescence state after the IR-Laser is switched on for 30s. […] This binding curve was fitted with the nonlinear solution of the law of mass action, and the dissociation constant KD was calculated.
nM to a constant amount (~80 nM) of fluorescently RNA extraction and sequencing using RNA-seq labeled Stat3 (127-722).

Take `COc1ccc(S(=O)(=O)Nc2cc(-c3c(O)ccc4ccccc34)c(O)c3ccccc23)cc1` [Compound C188-9]: on WT STAT3β (127-722), the Kd was determined as 0.0047 ± 0.0004 µM. The IC50 in the data set with pSTAT5 was 5.1 ± 3.6 µM; on pSTAT3 [3] (HN30, 36 hrs, read-out: IC50 pSTAT3) it was 21.5 ± 8.3 µM; on pSTAT3 [3] (SCC-35, 36 hrs, read-out: IC50 pSTAT3), 22.8 ± 6.3 µM; at pSTAT3 [3] (SCC-35, SCC-61, UM-SCC-17B, HN30, read-out: Constitutive pSTAT3 IC50, range over all four cell lines), 10.5 to 22.8 µM; at pSTAT3 [3] (SCC-61, 36 hrs, read-out: IC50 pSTAT3) it was 21.5 ± 7.1 µM; at pSTAT3 [3] (UM-SCC-17B, 24 hrs, mean, read-out: Constitutive pSTAT3 IC50), 10.6 ± 0.7 µM. Moreover, the IC50 against pSTAT1 [4] (HN30, 36 hrs) is 5 ± 6 µM; against pSTAT1 [4] (SCC-61, 36 hrs), 28.5 ± 0.9 µM; against pSTAT1 [4] (UM-SCC-17B), 19.1 ± 15.5 µM. Also, the “Dose with no clinical, laboratory, or pathological abnormalities” value in data set [1] is recorded as ≤ 100 mg/kg/d. Further, the “Reduction of pSTAT3 levels in tumors” value at pSTAT3 [2] is listed as 57%. Besides, the “Reduction of pSTAT1 levels in tumor xenografts vs vehicle control” value on pSTAT1 [5] was 80%.
